The numbers were not newly measured in patent US10759976B2, “Color changeable adhesives and methods of making such adhesives” (Sensor International, LLC, priority 2018, dated 2020), which cites them from elsewhere.

The conditions of one data set: Table 2, carbon dioxide sensitive pigments/dyes.
For “5′ and 6′-Carboxyseminaphtholfluorescein”, the pKa is 7.4.

Turning to 5′ and 6′-Carboxyseminaphtholrhodamine, the pKa is 7.5.

With `O=S(=O)(O)c1cc(O)c2ccc3c(S(=O)(=O)O)cc(S(=O)(=O)O)c4ccc1c2c34` [1, Hydroxypyrene-3,6,8-trisulphonic acid], the pKa was 8.1.

`O=C(O)Cc1cc(=O)oc2cc(O)ccc12` [7-hydroxycoumarin-4-acetic acid]: the pKa was 7.8.

Consider `O=S1(=O)OC(c2ccc(O)cc2)(c2ccc(O)cc2)c2ccccc21` [Phenol Red, phenolsulfonphthalein], for which the pKa is given as 7.6.

As for `Cc1cc(O)c(C(C)C)cc1C1(c2cc(C(C)C)c(O)cc2C)OS(=O)(=O)c2ccccc21` [Thymol blue, thymolsulphonephthalein], the pKa is 9.0.

As to `Cc1cc(O)c(C(C)C)cc1C1(c2cc(C(C)C)c(O)cc2C)OC(=O)c2ccccc21` [Thymolphthalein, 3,3-bis(4-hydroxy-2-methyl-5-propan-2-ylphenyl)-2-benzofuran-1-one], the pKa is 9.7.

In the case of `Cc1cc(O)ccc1C1(c2ccc(O)cc2C)OS(=O)(=O)c2ccccc21` [m-Cresol Purple], the pKa is 8.3.

In the case of o-Cresolphthalein, the pKa was 9.4.

The data set is the same for the next values; noted with them: Table 3, fluorimetric pigments/dyes.
As to `O=S(=O)(O)c1cc(O)c2ccc3c(S(=O)(=O)O)cc(S(=O)(=O)O)c4ccc1c2c34` [1, Hydroxypyrene-3,6,8-trisulphonic acid], the pKa is 8.1.

Take `NC(=O)NN=Cc1ccccc1O` [salicylaldehyde semicarbazone]: the pKa is on record as 7.8.

The data set is the same for the next values; noted with them: Table 4, ammonia sensitive pigments/dyes.
For the molecule `O=C1c2ccccc2C(=O)c2c1cc(S(=O)(=O)O)c(O)c2O` [Alizarin red S], the pKa is 4.5.

As for `O=C1c2ccccc2C(=O)c2c1ccc(O)c2O` [Alizarin], the pKa is given as 6.8.

For the molecule `O=S1(=O)OC(c2cc(Cl)c(O)c(Br)c2)(c2cc(Cl)c(O)c(Br)c2)c2ccccc21` [Bromochlorophenol blue], the pKa is given as 6.0.

In the case of `Cc1c(C2(c3cc(Br)c(O)c(Br)c3C)OS(=O)(=O)c3ccccc32)cc(Br)c(O)c1Br` [Bromocresol green], the pKa is reported as 4.7.

As for `O=S1(=O)OC(c2cc(Br)c(O)c(Br)c2)(c2cc(Br)c(O)c(Br)c2)c2ccccc21` [Bromophenol blue], the pKa is 3.9.

With `O=S1(=O)OC(c2ccc(O)c(Cl)c2)(c2ccc(O)c(Cl)c2)c2ccccc21` [Chlorophenol red], the pKa was 6.3.

On to `CCN(CC)c1ccc(N=Nc2ccc(S(=O)(=O)[O-])cc2)cc1.[K+]` [Ethyl orange], for which the pKa is 4.3.

On to `CN(C)c1ccc(N=Nc2ccc(S(=O)(=O)[O-])cc2)cc1.[Na+]` [Methyl Orange], for which the pKa is 4.2.

As to `CN(C)c1ccc(/N=N/c2ccccc2C(=O)O)cc1` [Methyl red], the pKa is given as 5.4.

With `CN(C)c1ccc(N=Nc2ccccc2)cc1` [Methyl yellow], the pKa is recorded as 3.3.

For `O=S1(=O)OC(c2ccc(O)cc2)(c2ccc(O)cc2)c2ccccc21` [Phenol Red, phenolsulfonphthalein], the pKa is listed as 7.6.

`O=C([O-])c1c(Cl)c(Cl)c(Cl)c(Cl)c1-c1c2cc(Br)c(=O)c(Br)c-2oc2c(Br)c([O-])c(Br)cc12.[Na+].[Na+]` [Phloxine B]: the pKa is on record as 2.5.

Consider `Cc1cc(O)c(C(C)C)cc1C1(c2cc(C(C)C)c(O)cc2C)OS(=O)(=O)c2ccccc21` [Thymol blue, thymolsulphonephthalein], for which the pKa is 1.6.

For `Cc1cc(O)ccc1C1(c2ccc(O)cc2C)OS(=O)(=O)c2ccccc21` [m-Cresol Purple], the pKa was 1.5.

Take Nitrazine yellow: the pKa is recorded as 6.4.

Broadly, the pKa is the pH at which an ionisable group is half protonated.
